# Source: patent US9045461B2, “Phenyl-heteroaryl derivatives and methods of use thereof” (TransTech Pharma, LLC, priority 2010, dated 2015)
# Structures can show the parent of a compound that is named as a salt.
# What was measured:
# [1] = biological target: T1, sRAGE binding to β-amyloid (Homo sapiens, UniProt Q15109); experiment: RAGE binding assay (ELISA), β-amyloid as the RAGE ligand; conditions: compounds tested in hydrochloride salt form, concentration at which 50% signal has been inhibited
# T1 construct: extracellular domain can be isolated by proteolysis of RAGE to generate soluble RAGE (sRAGE) comprised of the V and C domains
# T1 sequence (Q15109 23-342 limits assumed): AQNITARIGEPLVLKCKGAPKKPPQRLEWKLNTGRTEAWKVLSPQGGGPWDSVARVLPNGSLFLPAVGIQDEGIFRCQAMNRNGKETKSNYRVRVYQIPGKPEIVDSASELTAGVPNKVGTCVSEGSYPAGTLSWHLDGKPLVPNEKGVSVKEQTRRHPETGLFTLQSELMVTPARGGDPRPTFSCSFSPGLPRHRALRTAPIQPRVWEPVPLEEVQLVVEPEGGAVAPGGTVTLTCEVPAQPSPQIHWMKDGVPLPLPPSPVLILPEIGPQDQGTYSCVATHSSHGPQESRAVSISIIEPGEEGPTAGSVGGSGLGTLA
# Method: (§1) The following assay method may be used to identify compounds of Formula (I) or pharmaceutically acceptable salts thereof which are useful as inhibitors of binding of physiological RAGE ligands, such as S100b and β-amyloid, to RAGE.
# (§2) S100b, β-amyloid, or CML (500 ng/100 μL/well) in 100 mM sodium bicarbonate/sodium carbonate buffer (pH 9.8) is loaded onto the wells of a NUNC Maxisorp flat bottom 96-well microtitre plate. The plate is incubated at 4° C. overnight. The wells are aspirated and treated with 50 mM imidazole buffer saline (pH 7.2) (with 5 mM CaCl2/MgCl2) containing 1% bovine serum albumin (BSA) (300 μL/well) for 1 h at RT. The wells are aspirated.
# (§3) Test compounds are dissolved in nanopure water (concentration: 10-100 μM). DMSO may be used as co-solvent. 25 μL of test compound solution in 4% DMSO is added, along with 75 μL sRAGE (6 nM FAC) to each well and samples are incubated for 1 h at 37° C. The wells are washed several times with 155 mM NaCl pH 7.2 buffer saline and are soaked for several seconds between each wash.
# (§4) Non-radioactive detection is performed by adding:
# (§5) 10 μL Biotinylated goat F(ab′)2 Anti-mouse IgG. (8.0×10-4 mg/mL, FAC), 5 μL Alk-phos-Streptavidin (3×10-3 mg/mL FAC), 0.42 μL per 5 mL Monoclonal antibody for sRAGE (FAC 6.0×10-3 mg/mL) to 5 mL 50 mM imidazole buffer saline (pH 7.2) containing 0.2% bovine serum albumin and 5 mM CaCl2. The mixture is incubated for 30 minutes at RT.
# (§6) 100 μL of complex is added to each well and incubation is allowed to proceed at rt for 1 h. Wells are washed several times with wash buffer and soaked several seconds between each wash. 100 μL 1 mg/mL (pNPP) in 1 M diethanolamine (pH adjusted to 9.8 with HCl) is added. Color is allowed to develop in the dark for 30 min to 1 h at rt. The reaction is quenched with 10 μL of stop solution (0.5-1.0 N NaOH in 50% ethanol) and the absorbance is measured spectrophotometrically with a microplate reader at 405 nm.
# (§7) The IC50 (μM) value in the ELISA assay represents the concentration of compound at which 50% signal has been inhibited.
# sRAGE binding to S100b = biological target: T2, sRAGE binding to S100b (Homo sapiens, UniProt Q15109); experiment: RAGE binding assay (ELISA), S100b as the RAGE ligand; conditions: compounds tested in hydrochloride salt form, concentration at which 50% signal has been inhibited
# T2 construct: extracellular domain can be isolated by proteolysis of RAGE to generate soluble RAGE (sRAGE) comprised of the V and C domains
# T2 sequence (Q15109 23-342 limits assumed): as above
# Method: as §1, §2, §3, §4, §5, §6, §7
IC50 [1],IC50 (sRAGE binding to S100b),Structure (SMILES)
2.62 µM,2.57 µM,"CN1CCC(Oc2cc(-c3ccc(OCc4ccccc4)cc3)c(C(F)(F)F)nn2)CC1 [Example 13, 4-(4-Benzyloxy-phenyl)-6-(1-methyl-piperidin-4-yloxy)-3-trifluoromethyl-pyridazine dihydrochloride]"
3.72 µM,3.4 µM,"CN1CCC(Oc2cc(-c3ccc(OC4CCCCC4)cc3)c(C3CCC3)nn2)CC1 [Example 61, 3-cyclobutyl-4-(4-cyclohexyloxy-phenyl)-6-(1-methyl-piperidin-4-yloxy)-pyridazine dihydrochloride]"
2.43 µM,1.8 µM,"CCCCc1nnc(OC2CCN(C)CC2)cc1-c1ccc(OCC2CCC(C(=O)N(C)C)CC2)cc1 (stereo not shown) [Example 56, 4-{4-[3-butyl-6-(1-methyl-piperidin-4-yloxy)-pyridazin-4-yl]-phenoxymethyl}-cyclohexanecarboxylic acid dimethylamide dihydrochloride]"
0.69 µM,0.65 µM,"CCCCc1nnc(OC2CCN(C)CC2)cc1-c1ccc(OCCC2CCCCC2)cc1 [Example 52, 3-butyl-4-[4-(2-cyclohexyl-ethoxy)-phenyl]-6-(1-methyl-piperidin-4-yloxy)-pyridazine dihydrochloride]"
1.25 µM,1.25 µM,"CCCCc1nnc(C(=O)NC2CCN(C)CC2)cc1-c1ccc(OCc2ccccc2)cc1 [Example 80, 5-(4-Benzyloxy-phenyl)-6-butyl-pyridazine-3-carboxylic acid (1-methyl-piperidin-4-yl)-amide dihydrochloride]"
2.59 µM,1.82 µM,"CCCCc1nnc(O[C@H]2CCN(C)C2)cc1-c1ccc(OC2CCCCC2)cc1 [Example 30, 3-Butyl-4-(4-cyclohexyloxy-phenyl)-6-((S)-1-methyl-pyrrolidin-3-yloxy)-pyridazine dihydrochloride]"
0.82 µM,0.81 µM,"CCCCc1nnc(OC2CCN(CCO)CC2)cc1-c1ccc(OC2CCCCC2)cc1 [Example 17, 2-{4-[6-Butyl-5-(4-cyclohexyloxy-phenyl)-pyridazin-3-yloxy]-piperidin-1-yl}-ethanol dihydrochloride]"
1.96 µM,1.42 µM,"CCCCc1nnc(OC2CCN(C)CC2)cc1-c1ccc(OCc2ccc(Cl)cc2)cc1 [Example 50, 3-butyl-4-[4-(4-chloro-benzyloxy)-phenyl]-6-(1-methyl-piperidin-4-yloxy)-pyridazine dihydrochloride]"
0.87 µM,0.64 µM,"CCCCc1nnc(OC2CCN(C)CC2)cc1-c1ccc(OC2CCC(F)(F)CC2)cc1 [Example 19, 3-Butyl-4-[4-(4,4-difluoro-cyclohexyloxy)-phenyl]-6-(1-methyl-piperidin-4-yloxy)-pyridazine dihydrochloride]"
3.72 µM,4.84 µM,"CCCCc1nnc(OCCCN2CCOCC2)cc1-c1ccc(OCc2ccccc2)cc1 [Example 8, 4-{3-[5-(4-Benzyloxy-phenyl)-6-butyl-pyridazin-3-yloxy]-propyl}-morpholine dihydrochloride]"
2.02 µM,2.51 µM,"CCCCc1nnc(OC2CCN(C)CC2)cc1-c1ccc(OCc2cccnn2)cc1 [Example 53, 3-butyl-6-(1-methyl-piperidin-4-yloxy)-4-[4-(pyridazin-3-ylmethoxy)-phenyl]-pyridazine trihydrochloride]"

# Second part, the compound before the results:
Structure (SMILES),IC50 [1],IC50 (sRAGE binding to S100b)
"CCCCc1nnc(OC[C@H]2CN(C)CC[C@H]2OC)cc1-c1ccc(OC2CCCCC2)cc1 (racemic) [Example 44, (±)-cis-3-Butyl-4-(4-cyclohexyloxy-phenyl)-6-(4-methoxy-1-methyl-piperidin-3-ylmethoxy)-pyridazine dihydrochloride]",0.32 µM,0.48 µM
"CCCCc1nnc(C(=O)NC[C@@H]2CCCN2CC)cc1-c1ccc(OC2CCCCC2)cc1 [Example 92, 6-Butyl-5-(4-cyclohexyloxy-phenyl)-pyridazine-3-carboxylic acid ((S)-1-ethyl-pyrrolidin-2-ylmethyl)-amide dihydrochloride]",1.02 µM,1.75 µM
"CCCCc1nnc(C(=O)NCC2CN(C)CCC2(F)F)cc1-c1ccc(OC2CCCCC2)cc1 (stereo not shown) [Example 99, 6-Butyl-5-(4-cyclohexyloxy-phenyl)-pyridazine-3-carboxylic acid (4,4-difluoro-1-methyl-piperidin-3-ylmethyl)-amide dihydrochloride]",1.81 µM,1.82 µM
"CCCCc1nnc(C(=O)NCC2CNCCO2)cc1-c1ccc(OC2CCCCC2)cc1 (stereo not shown) [Example 90, 6-Butyl-5-(4-cyclohexyloxy-phenyl)-pyridazine-3-carboxylic acid (morpholin-2-ylmethyl)-amide dihydrochloride]",1.78 µM,1.54 µM
"CCCCc1nnc(C(=O)NC2CC3CCC(C2)N3C)cc1-c1ccc(OC2CCCCC2)cc1 (stereo not shown) [Example 96, 6-Butyl-5-(4-cyclohexyloxy-phenyl)-pyridazine-3-carboxylic acid (8-methyl-8-aza-bicyclo[3.2.1]oct-3-yl)-amide dihydrochloride]",0.94 µM,1.16 µM
"CCCCc1nnc(OC2CCN(C)CC2)cc1-c1ccc(OC2CCCCC2)c(-c2nnnn2C)c1 [Example 70, 3-Butyl-4-[4-cyclohexyloxy-3-(1-methyl-1H-tetrazol-5-yl)-phenyl]-6-(1-methyl-piperidin-4-yloxy)-pyridazine dihydrochloride]",2.94 µM,2.17 µM
"CCCCc1nnc(OC2CCN(CCC(=O)N(C)C)CC2)cc1-c1ccc(OC2CCCCC2)cc1 [Example 16, 3-{4-[6-Butyl-5-(4-cyclohexyloxy-phenyl)-pyridazin-3-yloxy]-piperidin-1-yl}-N,N-dimethyl-propionamide dihydrochloride]",2.07 µM,2.17 µM
"CCCCc1nnc(C(=O)NCC2CCN(C)CC2)cc1-c1ccc(OC2CCCCC2)cc1 [Example 103, 6-Butyl-5-(4-cyclohexyloxy-phenyl)-pyridazine-3-carboxylic acid (1-methyl-piperidin-4-ylmethyl)-amide dihydrochloride]",1.11 µM,1.77 µM
"CCCCc1nnc(OC2CCN(C)CC2)cc1-c1ccc(OC2CCCCC2)c(NC(=O)NC(C)(C)C)c1 [Example 77, 1-tert-Butyl-3-{5-[3-butyl-6-(1-methyl-piperidin-4-yloxy)-pyridazin-4-yl]-2-cyclohexyloxy-phenyl}-urea dihydrochloride]",0.66 µM,0.68 µM
"CCCCc1nnc(OCC2CN(C)CCO2)cc1-c1ccc(OC2CCCCC2)cc1 (stereo not shown) [Example 34, 2-[6-Butyl-5-(4-cyclohexyloxy-phenyl)-pyridazin-3-yloxymethyl]-4-methyl-morpholine dihydrochloride]",2.58 µM,2.93 µM
"CCCCc1nnc(C(=O)N2CCC(CN(C)C)C(F)(F)C2)cc1-c1ccc(OC2CCCCC2)cc1 (stereo not shown) [Example 105, [6-Butyl-5-(4-cyclohexyloxy-phenyl)-pyridazin-3-yl]-(4-dimethylaminomethyl-3,3-difluoro-piperidin-1-yl)-methanone dihydrochloride]",2.12 µM,1.39 µM
"CCCCc1nnc(C(=O)N(C)C2CCN(C)CC2)cc1-c1ccc(OC2CCCCC2)cc1 [Example 114, 6-Butyl-5-(4-cyclohexyloxy-phenyl)-pyridazine-3-carboxylic acid methyl-(1-methyl-piperidin-4-yl)-amide dihydrochloride]",0.97 µM,1.08 µM
"CCCCc1nnc(C(=O)N[C@H]2CC[C@@H](N(C)C)CC2)cc1-c1ccc(OC2CCCCC2)cc1 [Example 95, (±)-(cis)-6-Butyl-5-(4-cyclohexyloxy-phenyl)-pyridazine-3-carboxylic acid (4-dimethylamino-cyclohexyl)-amide dihydrochloride]",1.05 µM,0.69 µM
"CCCCc1nnc(C(=O)N2CCO[C@@H](CN(C)C)C2)cc1-c1ccc(OC2CCCCC2)cc1 [Example 97, [6-Butyl-5-(4-cyclohexyloxy-phenyl)-pyridazin-3-yl]-((S)-2-dimethylaminomethyl-morpholin-4-yl)-methanone dihydrochloride]",1.72 µM,1.89 µM
"CCCCc1nnc(C(=O)NCC2=CCN(C)CC2)cc1-c1ccc(OC2CCCCC2)cc1 [Example 108, 6-Butyl-5-(4-cyclohexyloxy-phenyl)-pyridazine-3-carboxylic acid (1-methyl-1,2,3,6-tetrahydro-pyridin-4-ylmethyl)-amide dihydrochloride]",0.86 µM,1.17 µM
